Measured values reported in BindingDB's records for doi:10.1021/jm501113m (Duquesne University, 2014).

Tests used:
[1] = Inhibition of FRbeta (unknown origin) expressed in Chinese hamster D4 cells assessed as cell growth inhibition incubated up to 96 hrs by Celltiter-blue cell viability assay
[2] = Inhibition of RFC (unknown origin) expressed in Chinese hamster PC43-10 cells assessed as cell growth inhibition incubated up to 96 hrs by Celltiter-blue cell viability assay
[3] = Inhibition of PCFT (unknown origin) expressed in Chinese hamster R2/PCFT4 cells assessed as cell growth inhibition incubated up to 96 hrs by Celltiter-blue cell viability assay
[4] = Inhibition of FRalpha (unknown origin) expressed in Chinese hamster RT16 cells assessed as cell growth inhibition incubated up to 96 hrs by Celltiter-blue cell viability assay
[5] = Inhibition of FRbeta (unknown origin) expressed in Chinese hamster D4 cells assessed as cell growth inhibition incubated up to 96 hrs in presence of 200 nM folic acid by Celltiter-blue cell viability assay
[6] = Inhibition of FRalpha (unknown origin) expressed in Chinese hamster RT16 cells assessed as cell growth inhibition incubated up to 96 hrs in presence of 200 nM folic acid by Celltiter-blue cell viability assay

SMILES	IC50 [1] [nM]	IC50 [2] [nM]	IC50 [3] [nM]	IC50 [4] [nM]	IC50 [5] [nM]	IC50 [6] [nM]
Nc1nc2[nH]c(CCCc3ccc(C(=O)NCCCC(=O)O)s3)cc2c(=O)[nH]1	> 1000	> 1000	> 1000	27	> 1000	> 1000
Nc1nc2[nH]c(CCCc3ccc(C(=O)O)s3)cc2c(=O)[nH]1	> 1000	> 1000	> 1000	661	> 1000	> 1000
Nc1nc2[nH]c(CCCc3ccc(C(=O)N[C@@H](CC(=O)O)C(=O)O)s3)cc2c(=O)[nH]1	347	> 1000	> 1000	6.6	> 1000	> 1000
Nc1nc2[nH]c(CCCc3ccc(C(=O)N[C@@H](CCCC(=O)O)C(=O)O)s3)cc2c(=O)[nH]1	3.6	> 1000	> 1000	9.5	> 1000	> 1000
CCC[C@H](NC(=O)c1ccc(CCCc2cc3c(=O)[nH]c(N)nc3[nH]2)s1)C(=O)O	> 1000	> 1000	> 1000	56	> 1000	> 1000
